This note sets out measurements from ChEMBL document CHEMBL1201862, “PubChem BioAssay data set” (2004).

Assay [1] in a line: DRD fibroblast viability loss – cell-based, non-viral oncogenic, luminescence, dose response (AID 1934). To be noted: Homo sapiens. It counts as functional.
The target of assay [2] is G-protein coupled receptor 55 (Homo sapiens, UniProt Q9Y2T6). Description: selective activators of receptor GPR55 – imaging, U2OS cells, beta-arrestin-GFP redistribution, primary screen (AID 1961). It counts as functional.
For assay [3], the system named is BJ. Nature of the assay: BJ-TERT-LT-ST fibroblast viability loss – cell-based, RAS-independent, luminescence, dose response (AID 1935).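 Also: BJ fibroblasts immortalized with TERT plus LT and ST oncogenes.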 It counts as functional. To be noted: Homo sapiens.
In assay [4] the test system is BJ. Nature of the assay: growth inhibition of engineered Ras-driven BJ cells – cell-based, alamar blue fluorescence, cherrypicked samples, dose response (AID 2631).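 Also: confirmatory dose-response assay in RAS-dependent BJ fibroblasts engineered with TERT, LT and ST, with cytotoxicity read by fluorescence.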 The format is functional. To be noted: Homo sapiens. Background: Alamar Blue is a resazurin reagent that responds to reducing activity.
For assay [5], the system named is BJ. Nature of the assay: BJ-TERT fibroblast viability loss – cell-based, RAS-independent, luminescence, dose response (AID 1933). It counts as functional. To be noted: Homo sapiens.
Assay [6] concerns the target T1, Microphthalmia-associated transcription factor (Homo sapiens, UniProt O75030).
T1 sequence (O75030 whole entry): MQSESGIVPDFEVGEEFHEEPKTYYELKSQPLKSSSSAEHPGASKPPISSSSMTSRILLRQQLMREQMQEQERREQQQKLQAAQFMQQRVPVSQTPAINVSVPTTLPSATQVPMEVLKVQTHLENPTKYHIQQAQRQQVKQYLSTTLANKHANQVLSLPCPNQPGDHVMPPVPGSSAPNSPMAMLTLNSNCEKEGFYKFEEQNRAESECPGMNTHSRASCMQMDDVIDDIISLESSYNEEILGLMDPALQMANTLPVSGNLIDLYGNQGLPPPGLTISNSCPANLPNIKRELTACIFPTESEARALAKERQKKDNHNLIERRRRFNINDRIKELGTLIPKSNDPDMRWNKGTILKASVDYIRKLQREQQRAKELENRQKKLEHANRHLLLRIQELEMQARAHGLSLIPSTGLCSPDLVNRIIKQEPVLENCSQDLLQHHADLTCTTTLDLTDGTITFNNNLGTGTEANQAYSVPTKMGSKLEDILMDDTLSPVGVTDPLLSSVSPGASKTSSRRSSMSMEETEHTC
Description: reducers of TRPM1 reporter luminescence, concentration series – cell-based, SK-MEL-5, cherry-picked, set 3, MITF inhibitor project, dose response (AID 493073).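 Also: SK-MEL-5 melanoma cells with luciferase driven by the MITF target TRPM1 promoter.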 It counts as functional.

Assay [7] relates to BJ. Nature of the assay: cells. It counts as functional, cell-based. To be noted: Homo sapiens.
Another assay concerns the target Prothrombin (Homo sapiens, UniProt P00734). Nature of the assay: Thrombin 1536 HTS Dose Response Confirmation. [Related pubchem assays: 1046 (Thrombin 1536 HTS; hits were confirmed in this assay)]. The format is functional.
Another assay deals with Saccharomyces cerevisiae. Description: S. cerevisiae Caspase-1/ASC signal blockers IC50, NALP1 inhibitor project selectivity test (AID 488863). It counts as functional, organism-based.
Assay [8] addresses NACHT, LRR and PYD domains-containing protein 1 (Homo sapiens, UniProt Q9C000). Nature of the assay: NALP1 inhibitors in yeast, dose response, luminescent (AID 488860). It counts as functional.
Assay [9] has as its target T2, Delta-type opioid receptor (Homo sapiens, UniProt P41143). Nature of the assay: delta opioid receptor blockers – image-based, SAR follow-up (AID 2357). The format is functional.
Assay [10] has as its target T2, Delta-type opioid receptor. Description: DOR agonists, SAR follow-up, image-based (AID 2370). The format is functional.
For assay [11], the target named is T3, Kappa-type opioid receptor (Homo sapiens, UniProt P41145). Description: kappa opioid receptor blockers, cell-based, luminescence, beta-arrestin, SAR follow-up (AID 2285). The format is functional.
The target of assay [12] is T3, Kappa-type opioid receptor. Description: kappa opioid receptor activation potency – imaging, image-based, SAR follow-up (AID 2359). It counts as functional.
Assay [13] deals with T3, Kappa-type opioid receptor. Description: kappa opioid receptor blockers, image-based, SAR follow-up (AID 2348). It counts as functional.
The target of assay [14] is T4, Mu-type opioid receptor (Homo sapiens, UniProt P35372). Nature of the assay: mu opioid receptor activators, image-based, SAR follow-up (AID 2352). It counts as functional.
The target in assay [15] is T4, Mu-type opioid receptor. Nature of the assay: mu opioid receptor blockers – image-based, SAR follow-up (AID 2420).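 Also: compounds added before stimulation of receptor with agonist DAMGO.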 It counts as functional.
Assay [16] deals with DNA dC->dU-editing enzyme APOBEC-3G (Homo sapiens, UniProt Q9HC16). Nature of the assay: Dose Response confirmation of small molecule APOBEC3G DNA Deaminase Inhibitors via a fluorescence-based single-stranded DNA deaminase assay. [Related pubchem assays (depositor defined):AID493012, AID493028]. The format is functional.
For assay [17], the target named is FAD-linked sulfhydryl oxidase ALR (Homo sapiens, UniProt P55789). Nature of the assay: ALR-catalysed DTT oxidation blockers – biochemical, H2O2 detection, luminescence, cherry-pick, dose response (AID 493248).
The target in assay [18] is DNA dC->dU-editing enzyme APOBEC-3A (Homo sapiens, UniProt P31941). Description: A3A deaminase inhibition for selectivity – biochemical, dose response (AID 504722). It counts as functional.
Assay [19] addresses Diphosphomevalonate decarboxylase (Streptococcus pneumoniae serotype 2 (strain D39 / NCTC 7466), UniProt Q9FD53). Description: diphosphomevalonate decarboxylase inhibitor confirmation – biochemical, cuvette format, coupled NADH fluorescence (AID 1028). The format is functional.
In assay [20] the target is T5, Mannose-6-phosphate isomerase (Homo sapiens, UniProt P34949).
T5 sequence (P34949 whole entry): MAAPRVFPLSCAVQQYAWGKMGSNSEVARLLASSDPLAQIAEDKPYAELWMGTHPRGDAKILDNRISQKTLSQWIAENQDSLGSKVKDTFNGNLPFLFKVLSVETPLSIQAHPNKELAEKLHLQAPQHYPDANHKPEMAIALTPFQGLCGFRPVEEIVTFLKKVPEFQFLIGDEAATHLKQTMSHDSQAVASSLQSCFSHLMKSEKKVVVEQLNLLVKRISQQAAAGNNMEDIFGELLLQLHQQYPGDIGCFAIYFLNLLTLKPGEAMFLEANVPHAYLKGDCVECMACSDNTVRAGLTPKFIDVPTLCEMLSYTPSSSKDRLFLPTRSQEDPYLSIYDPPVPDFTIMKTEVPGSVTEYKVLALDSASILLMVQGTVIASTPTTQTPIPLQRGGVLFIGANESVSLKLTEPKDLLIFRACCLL
Description: phosphomannose isomerase inhibition – biochemical, fluorescence intensity, confirmation (AID 1535).

The target in assay [21] is T6, Alkaline phosphatase, tissue-nonspecific isozyme (Homo sapiens, UniProt P05186).
T6 sequence (P05186 whole entry): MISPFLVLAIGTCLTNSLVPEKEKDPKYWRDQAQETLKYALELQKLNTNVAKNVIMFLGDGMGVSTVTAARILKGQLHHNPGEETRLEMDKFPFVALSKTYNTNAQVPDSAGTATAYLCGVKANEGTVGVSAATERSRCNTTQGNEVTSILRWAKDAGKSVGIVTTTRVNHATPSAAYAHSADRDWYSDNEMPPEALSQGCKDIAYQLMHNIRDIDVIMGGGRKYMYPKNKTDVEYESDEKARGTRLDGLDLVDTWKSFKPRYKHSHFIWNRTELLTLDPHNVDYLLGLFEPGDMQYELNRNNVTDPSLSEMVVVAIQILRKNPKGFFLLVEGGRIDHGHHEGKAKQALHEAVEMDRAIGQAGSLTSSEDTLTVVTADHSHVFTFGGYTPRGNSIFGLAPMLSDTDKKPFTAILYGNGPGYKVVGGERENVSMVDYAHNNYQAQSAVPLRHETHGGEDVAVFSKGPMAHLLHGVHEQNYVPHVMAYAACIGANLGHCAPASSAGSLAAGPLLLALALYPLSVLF
Description: potency against alkaline phosphatase TNAP – biochemical, luminescent, dose response, SAR follow-up (AID 1056).

In assay [22] the target is Phosphoethanolamine/phosphocholine phosphatase (Homo sapiens, UniProt Q8TCT1). Nature of the assay: SAR assay for compounds that inhibit PHOSPHO1. [Related pubchem assays (depositor defined):AID1545, AID1565, AID1574].
In the next assay the target is Phosphomannomutase 2 (Homo sapiens, UniProt O15305). Nature of the assay: Counter screen SAR assay for PMM2 inhibitors via a fluorescence intensity assay. [Related pubchem assays (depositor defined):AID1545, AID1574]. Background: The purpose of a counterscreen is to sort out artefacts and off-target activity.
For assay [23], the target named is T7, SUMO-activating enzyme (Homo sapiens, UniProt Q9UBT2). Description: blockers of UBC9-mediated SUMO conjugation – biochemical, AlphaScreen, SUMOylation inhibitor project, confirmation (AID 2018). It counts as functional. For orientation: Alpha assays give light when donor and acceptor beads are brought close together.
Assay [24] has as its target T7, SUMO-activating enzyme. Nature of the assay: blockers of SAE1/SAE2–UBC9 SUMO transfer – biochemical, HTRF, uHTS, primary screen (AID 2006). The format is protein-complex assay.
Assay [25] addresses NACHT, LRR and PYD domains-containing protein 3 (Homo sapiens, UniProt Q96P20). Description: NALP3 inhibitors in yeast, dose response, luminescent (AID 488799). The format is functional.
The nature of assay [26]: protection from phage-mediated lysis, alamar blue read-out – E. coli UTI89, K1F phage, bacterial capsule biogenesis inhibitors (AID 488966). It counts as functional.

The source made the active and inactive calls.

T3 sequence (P41145 whole entry): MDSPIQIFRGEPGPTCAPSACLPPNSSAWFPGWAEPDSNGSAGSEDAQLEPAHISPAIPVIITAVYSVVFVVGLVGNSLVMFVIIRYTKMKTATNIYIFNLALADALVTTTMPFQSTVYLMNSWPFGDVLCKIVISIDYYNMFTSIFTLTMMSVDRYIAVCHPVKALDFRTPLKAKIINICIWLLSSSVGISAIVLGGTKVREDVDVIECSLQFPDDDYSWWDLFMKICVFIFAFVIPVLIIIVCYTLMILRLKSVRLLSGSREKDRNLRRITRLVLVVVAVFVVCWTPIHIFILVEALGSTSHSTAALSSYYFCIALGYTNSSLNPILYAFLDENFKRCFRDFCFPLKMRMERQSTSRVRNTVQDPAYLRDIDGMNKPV
T2 sequence (P41143 whole entry): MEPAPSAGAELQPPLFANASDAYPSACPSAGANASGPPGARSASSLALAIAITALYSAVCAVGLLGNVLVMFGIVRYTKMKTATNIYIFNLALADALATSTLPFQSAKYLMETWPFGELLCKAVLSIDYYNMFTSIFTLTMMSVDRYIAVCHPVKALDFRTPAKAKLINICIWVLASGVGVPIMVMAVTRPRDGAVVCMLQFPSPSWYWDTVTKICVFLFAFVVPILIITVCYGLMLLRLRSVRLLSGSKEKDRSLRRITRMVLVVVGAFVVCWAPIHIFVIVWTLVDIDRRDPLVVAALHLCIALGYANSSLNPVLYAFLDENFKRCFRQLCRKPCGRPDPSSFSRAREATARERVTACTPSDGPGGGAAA
T7 sequence (Q9UBE0 whole entry): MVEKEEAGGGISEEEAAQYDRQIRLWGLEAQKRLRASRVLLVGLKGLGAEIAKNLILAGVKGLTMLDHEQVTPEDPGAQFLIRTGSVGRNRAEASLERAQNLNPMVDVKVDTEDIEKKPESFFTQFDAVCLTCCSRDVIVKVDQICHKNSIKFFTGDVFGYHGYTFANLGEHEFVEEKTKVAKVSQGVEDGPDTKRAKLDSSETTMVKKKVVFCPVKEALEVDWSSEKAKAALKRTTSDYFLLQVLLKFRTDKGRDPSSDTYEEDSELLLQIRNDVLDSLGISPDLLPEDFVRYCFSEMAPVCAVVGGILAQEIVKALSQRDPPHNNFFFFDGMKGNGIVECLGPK
T7 sequence (Q9UBT2 whole entry): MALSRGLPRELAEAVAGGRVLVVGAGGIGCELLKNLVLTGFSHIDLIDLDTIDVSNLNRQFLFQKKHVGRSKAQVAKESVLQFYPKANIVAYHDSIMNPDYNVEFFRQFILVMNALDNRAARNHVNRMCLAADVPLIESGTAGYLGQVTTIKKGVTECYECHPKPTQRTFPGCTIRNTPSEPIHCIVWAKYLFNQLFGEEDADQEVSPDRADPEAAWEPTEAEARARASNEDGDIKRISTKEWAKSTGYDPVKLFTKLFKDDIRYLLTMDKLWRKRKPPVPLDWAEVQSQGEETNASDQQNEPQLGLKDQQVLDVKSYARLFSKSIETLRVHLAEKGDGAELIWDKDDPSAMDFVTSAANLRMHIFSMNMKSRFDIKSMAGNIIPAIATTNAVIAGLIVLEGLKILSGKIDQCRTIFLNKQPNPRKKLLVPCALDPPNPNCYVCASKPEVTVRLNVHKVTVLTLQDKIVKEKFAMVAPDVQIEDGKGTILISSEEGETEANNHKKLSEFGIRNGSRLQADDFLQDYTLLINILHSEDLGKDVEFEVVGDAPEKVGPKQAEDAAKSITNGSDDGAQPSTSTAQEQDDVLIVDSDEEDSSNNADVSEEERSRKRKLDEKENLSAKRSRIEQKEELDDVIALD
T4 sequence (P35372 whole entry): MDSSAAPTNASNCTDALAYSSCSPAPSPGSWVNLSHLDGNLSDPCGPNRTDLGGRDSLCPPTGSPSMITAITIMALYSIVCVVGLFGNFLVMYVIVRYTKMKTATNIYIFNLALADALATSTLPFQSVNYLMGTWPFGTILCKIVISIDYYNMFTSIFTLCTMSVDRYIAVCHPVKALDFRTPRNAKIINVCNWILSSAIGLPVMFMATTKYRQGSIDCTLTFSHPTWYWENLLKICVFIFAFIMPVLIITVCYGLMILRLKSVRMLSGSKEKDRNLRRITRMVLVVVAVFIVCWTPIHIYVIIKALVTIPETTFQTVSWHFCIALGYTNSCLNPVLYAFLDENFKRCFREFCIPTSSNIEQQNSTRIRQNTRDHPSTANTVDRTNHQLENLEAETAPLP
Phosphomannomutase 2, sequence (O15305 whole entry): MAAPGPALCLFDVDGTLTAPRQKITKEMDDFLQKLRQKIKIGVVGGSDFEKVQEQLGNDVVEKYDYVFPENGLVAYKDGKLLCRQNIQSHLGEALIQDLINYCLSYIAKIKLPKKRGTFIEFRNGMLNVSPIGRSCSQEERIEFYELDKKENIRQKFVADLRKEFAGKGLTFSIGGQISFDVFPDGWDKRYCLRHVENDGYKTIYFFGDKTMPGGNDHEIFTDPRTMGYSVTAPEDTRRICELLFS
Phosphoethanolamine/phosphocholine phosphatase, sequence (Q8TCT1 whole entry): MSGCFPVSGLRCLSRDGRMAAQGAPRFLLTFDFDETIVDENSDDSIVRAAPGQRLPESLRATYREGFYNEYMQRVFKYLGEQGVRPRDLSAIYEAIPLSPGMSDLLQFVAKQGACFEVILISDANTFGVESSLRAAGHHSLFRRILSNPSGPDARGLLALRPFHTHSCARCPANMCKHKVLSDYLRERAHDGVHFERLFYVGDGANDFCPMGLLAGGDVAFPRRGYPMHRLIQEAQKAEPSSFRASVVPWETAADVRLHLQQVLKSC
NACHT, LRR and PYD domains-containing protein 1, sequence (Q9C000 1-1212 limits assumed): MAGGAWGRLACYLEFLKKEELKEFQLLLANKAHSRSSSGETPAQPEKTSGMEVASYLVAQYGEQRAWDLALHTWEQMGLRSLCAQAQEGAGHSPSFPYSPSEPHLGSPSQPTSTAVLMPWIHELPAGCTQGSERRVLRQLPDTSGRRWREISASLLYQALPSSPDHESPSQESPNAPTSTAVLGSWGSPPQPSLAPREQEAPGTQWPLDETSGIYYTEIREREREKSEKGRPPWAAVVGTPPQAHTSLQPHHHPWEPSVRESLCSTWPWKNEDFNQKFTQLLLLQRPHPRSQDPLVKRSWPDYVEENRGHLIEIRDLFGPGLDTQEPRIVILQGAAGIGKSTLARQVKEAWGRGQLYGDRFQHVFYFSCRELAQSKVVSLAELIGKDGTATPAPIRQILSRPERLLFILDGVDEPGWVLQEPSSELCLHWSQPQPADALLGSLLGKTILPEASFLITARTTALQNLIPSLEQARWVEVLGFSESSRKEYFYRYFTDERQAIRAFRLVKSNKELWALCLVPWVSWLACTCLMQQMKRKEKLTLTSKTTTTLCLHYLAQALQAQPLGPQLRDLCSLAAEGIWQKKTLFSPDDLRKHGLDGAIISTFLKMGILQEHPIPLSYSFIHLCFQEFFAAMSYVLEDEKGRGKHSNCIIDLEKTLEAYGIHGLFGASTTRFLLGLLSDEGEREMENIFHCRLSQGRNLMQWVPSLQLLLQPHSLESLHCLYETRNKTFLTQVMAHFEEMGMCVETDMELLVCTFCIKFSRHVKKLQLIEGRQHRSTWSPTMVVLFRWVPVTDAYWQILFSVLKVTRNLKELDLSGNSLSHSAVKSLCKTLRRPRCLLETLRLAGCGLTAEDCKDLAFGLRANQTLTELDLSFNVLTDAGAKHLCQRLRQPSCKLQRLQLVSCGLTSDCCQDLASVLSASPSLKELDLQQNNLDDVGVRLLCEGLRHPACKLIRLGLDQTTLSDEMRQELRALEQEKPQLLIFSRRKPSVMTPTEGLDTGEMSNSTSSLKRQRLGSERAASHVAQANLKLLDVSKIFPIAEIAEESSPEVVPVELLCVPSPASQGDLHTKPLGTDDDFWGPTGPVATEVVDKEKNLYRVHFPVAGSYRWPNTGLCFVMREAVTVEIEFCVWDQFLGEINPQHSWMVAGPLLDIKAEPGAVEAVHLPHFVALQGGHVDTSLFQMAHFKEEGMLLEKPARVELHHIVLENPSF
NACHT, LRR and PYD domains-containing protein 1, sequence (Q9C000 1213-1473 limits assumed): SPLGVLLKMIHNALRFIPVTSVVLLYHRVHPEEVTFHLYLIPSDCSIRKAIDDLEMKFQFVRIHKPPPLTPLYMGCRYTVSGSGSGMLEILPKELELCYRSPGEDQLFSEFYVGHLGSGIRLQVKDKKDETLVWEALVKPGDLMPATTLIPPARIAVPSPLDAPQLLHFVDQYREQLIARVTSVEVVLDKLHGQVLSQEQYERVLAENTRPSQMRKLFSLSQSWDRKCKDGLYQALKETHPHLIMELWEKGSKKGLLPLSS
Diphosphomevalonate decarboxylase, sequence (Q9FD53 whole entry): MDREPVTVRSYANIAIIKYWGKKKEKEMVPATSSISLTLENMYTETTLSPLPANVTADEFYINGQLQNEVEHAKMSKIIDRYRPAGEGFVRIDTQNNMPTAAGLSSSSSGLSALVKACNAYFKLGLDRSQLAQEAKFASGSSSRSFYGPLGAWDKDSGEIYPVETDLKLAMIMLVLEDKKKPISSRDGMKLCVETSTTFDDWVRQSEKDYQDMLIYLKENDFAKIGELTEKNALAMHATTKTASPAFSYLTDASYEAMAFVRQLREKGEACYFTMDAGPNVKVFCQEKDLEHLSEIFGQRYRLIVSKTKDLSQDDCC
G-protein coupled receptor 55, sequence (Q9Y2T6 whole entry): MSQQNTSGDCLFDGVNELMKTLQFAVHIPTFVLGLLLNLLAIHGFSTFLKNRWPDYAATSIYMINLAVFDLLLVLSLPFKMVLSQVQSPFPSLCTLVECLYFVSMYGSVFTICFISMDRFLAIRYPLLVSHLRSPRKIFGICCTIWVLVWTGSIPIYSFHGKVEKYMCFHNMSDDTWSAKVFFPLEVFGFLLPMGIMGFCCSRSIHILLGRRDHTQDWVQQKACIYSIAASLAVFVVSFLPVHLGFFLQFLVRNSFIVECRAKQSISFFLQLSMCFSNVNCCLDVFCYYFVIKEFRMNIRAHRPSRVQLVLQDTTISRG

As for `COc1ccc(C(=O)/C=C/C(=O)N(CC(=O)NC2CCCCC2)Cc2ccccc2OC)c(O)c1`, the concentration giving a half-maximal response (EC50) in assay [1] is 3.39 µM (active); in assay [2], > 32 µM (inactive); with BJ [3], 2.57 µM (inconclusive); in the assay with BJ [4], 5.02 µM (inconclusive); in the assay on BJ [5], 2.2 µM (active); in the assay on BJ [7] it was 3.7 µM (active). In assay [6], the AC50 was 4.04 µM (active).

Turning to `COCC(=O)n1nc(-c2ccc(Cl)cc2)nc1NCc1ccc(F)cc1`, the IC50 was 1.8 µM (active) on Prothrombin, > 100 µM (inactive) in the assay on Saccharomyces cerevisiae and > 100 µM (inactive) in assay [8].

On to `Oc1c(C=Nc2cccc3cccnc23)sc2ccccc12`, for which the IC50 in assay [9] is 1.01 µM (active); in assay [11], 8.77 µM (active); in [13] it was 0.533 µM (active); on Mu-type opioid receptor [15], 0.897 µM (active). In addition, the EC50 (in assay [10]; in assay [12]; at Mu-type opioid receptor [14]) was > 32 µM (inactive) each time.

As for `CCn1c(-c2ccc(Cl)cc2)n[nH]c1=S`, the IC50 in [16] is 5.43 µM (active); in assay [18], > 100 µM (inactive). In assay [17], the half-maximal activity concentration (AC50) is 6.5 µM (active).

As for `O=C(NCc1ccccc1)c1cccc(-n2sc3ccccc3c2=O)c1`, the IC50 in assay [19] was 4.74 µM (active); in assay [20], 2.25 µM (active); in [21], > 100 µM (inactive); in assay [22] it was 2.33 µM (inactive); at Phosphomannomutase 2 it was 17.8 µM (active).

As for `C=CCOc1c(Br)cc(/C=C2\SC(Nc3ccccc3)=NC2=O)cc1OC`, the half-maximal inhibitory concentration (IC50) at SUMO-activating enzyme [23] was 29.9 µM (active); at SUMO-activating enzyme [24] it was 12 µM (active).

Take `CN(CC(=O)N1CCc2ccccc2C1)c1ccccc1`: the IC50 in assay [25] was > 100 µM (inactive).

Turning to `CCOc1ccc(Br)cc1CSC(=N)N`, in [26], the half-maximal inhibitory concentration (IC50) was > 300 µM (active).

One may read the EC50 as the concentration at which the effect is half-maximal. The term AC50 denotes the concentration giving half of the maximal activity seen. A word on the IC50: it is the concentration at which inhibition is half-maximal.
